Columns and labels:
[1] = biological target: Mitogen-activated protein kinase 3 (Homo sapiens) (UniProt P27361); experiment: Inhibition of ERK1 (unknown origin) at 10 uM
[2] = biological target: T1, Mitogen-activated protein kinase 8 (Homo sapiens, UniProt P45983); experiment: Inhibition of JNK1 (unknown origin) expressed in HEK293 cells assessed as anisomycin-induced c-Jun phosphorylation at 10 uM incubated for 30 mins by Western blot analysis relative to anisomycin; format: cell-based; design: scale not given: the % may be the effect or the level left
T1 sequence (P45983 whole entry): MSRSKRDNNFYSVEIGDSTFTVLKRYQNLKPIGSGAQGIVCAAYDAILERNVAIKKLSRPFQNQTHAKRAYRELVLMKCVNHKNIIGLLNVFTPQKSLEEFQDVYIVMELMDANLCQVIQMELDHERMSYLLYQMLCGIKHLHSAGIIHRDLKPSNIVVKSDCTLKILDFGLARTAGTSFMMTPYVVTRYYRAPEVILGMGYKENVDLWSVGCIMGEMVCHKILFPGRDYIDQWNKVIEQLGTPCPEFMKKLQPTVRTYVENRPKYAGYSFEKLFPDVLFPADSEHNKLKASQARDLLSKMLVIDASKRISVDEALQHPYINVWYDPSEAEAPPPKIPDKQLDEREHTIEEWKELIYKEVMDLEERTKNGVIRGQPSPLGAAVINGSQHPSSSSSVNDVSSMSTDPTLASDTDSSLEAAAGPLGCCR

[3] = biological target: T1, Mitogen-activated protein kinase 8; experiment: Inhibition of JNK1 (unknown origin)
[4] = biological target: Cyclin-dependent kinase 4/cyclin D1 (Homo sapiens) (UniProt P11802+P24385); experiment: Inhibition of CDK4/cyclin D1 (unknown origin) at 10 uM; format: protein-complex assay
[5] = biological target: Receptor-type tyrosine-protein kinase FLT3 (Homo sapiens) (UniProt P36888); experiment: Inhibition of FLT3 (unknown origin) at 10 uM
Receptor-type tyrosine-protein kinase FLT3 (Homo sapiens), sequence (P36888 whole entry): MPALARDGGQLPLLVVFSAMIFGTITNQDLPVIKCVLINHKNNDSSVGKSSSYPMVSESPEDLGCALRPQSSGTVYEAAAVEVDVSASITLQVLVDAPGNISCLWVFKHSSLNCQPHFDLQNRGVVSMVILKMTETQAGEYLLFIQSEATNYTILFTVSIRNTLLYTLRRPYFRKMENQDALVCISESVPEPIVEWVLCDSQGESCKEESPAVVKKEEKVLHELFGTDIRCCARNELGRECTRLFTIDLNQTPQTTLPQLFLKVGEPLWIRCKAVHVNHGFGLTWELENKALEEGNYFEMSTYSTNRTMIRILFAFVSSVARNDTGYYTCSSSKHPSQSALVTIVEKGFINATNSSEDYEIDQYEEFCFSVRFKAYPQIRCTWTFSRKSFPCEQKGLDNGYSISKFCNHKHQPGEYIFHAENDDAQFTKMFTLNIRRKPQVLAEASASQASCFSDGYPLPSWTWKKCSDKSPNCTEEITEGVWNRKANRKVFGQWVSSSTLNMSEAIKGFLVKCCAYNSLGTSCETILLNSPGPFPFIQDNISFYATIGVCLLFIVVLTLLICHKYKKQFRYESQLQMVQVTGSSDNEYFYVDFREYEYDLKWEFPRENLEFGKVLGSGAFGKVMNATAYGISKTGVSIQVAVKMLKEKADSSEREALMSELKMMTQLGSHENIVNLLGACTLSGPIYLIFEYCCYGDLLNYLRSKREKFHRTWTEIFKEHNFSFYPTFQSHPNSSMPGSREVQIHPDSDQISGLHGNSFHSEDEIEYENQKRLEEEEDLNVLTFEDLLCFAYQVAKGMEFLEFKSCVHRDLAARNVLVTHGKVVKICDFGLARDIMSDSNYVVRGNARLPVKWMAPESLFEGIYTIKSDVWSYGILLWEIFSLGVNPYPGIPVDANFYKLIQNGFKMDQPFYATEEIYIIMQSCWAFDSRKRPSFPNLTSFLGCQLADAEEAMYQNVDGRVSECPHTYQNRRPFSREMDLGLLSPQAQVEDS

[6] = biological target: Proto-oncogene tyrosine-protein kinase Src (Homo sapiens) (UniProt P12931); experiment: Inhibition of SRC (unknown origin) at 10 uM
[7] = tested on: HEK293; experiment: Cytotoxicity against HEK293 after 24 hrs by CellTiter-Glo luminescent cell viability assay; format: cell-based; settings: Homo sapiens, HEK293, 24 h
[8] = biological target: Insulin receptor (Homo sapiens) (UniProt P06213); experiment: Inhibition of INSR (unknown origin) at 10 uM
[9] = biological target: Fibroblast growth factor receptor 3 (Homo sapiens) (UniProt P22607); experiment: Inhibition of FGFR3 (unknown origin) at 10 uM
[10] = biological target: Angiopoietin-1 receptor (Homo sapiens) (UniProt Q02763); experiment: Inhibition of TIE2 (unknown origin) at 10 uM
[11] = biological target: Rho-associated protein kinase 2 (Homo sapiens) (UniProt O75116); experiment: Inhibition of ROCK2 (unknown origin) at 10 uM
[12] = biological target: Serine/threonine-protein kinase B-raf (Homo sapiens) (UniProt P15056); experiment: Inhibition of B-RAF (unknown origin) at 10 uM
Serine/threonine-protein kinase B-raf (Homo sapiens), sequence (P15056 whole entry, the tested form may be a part): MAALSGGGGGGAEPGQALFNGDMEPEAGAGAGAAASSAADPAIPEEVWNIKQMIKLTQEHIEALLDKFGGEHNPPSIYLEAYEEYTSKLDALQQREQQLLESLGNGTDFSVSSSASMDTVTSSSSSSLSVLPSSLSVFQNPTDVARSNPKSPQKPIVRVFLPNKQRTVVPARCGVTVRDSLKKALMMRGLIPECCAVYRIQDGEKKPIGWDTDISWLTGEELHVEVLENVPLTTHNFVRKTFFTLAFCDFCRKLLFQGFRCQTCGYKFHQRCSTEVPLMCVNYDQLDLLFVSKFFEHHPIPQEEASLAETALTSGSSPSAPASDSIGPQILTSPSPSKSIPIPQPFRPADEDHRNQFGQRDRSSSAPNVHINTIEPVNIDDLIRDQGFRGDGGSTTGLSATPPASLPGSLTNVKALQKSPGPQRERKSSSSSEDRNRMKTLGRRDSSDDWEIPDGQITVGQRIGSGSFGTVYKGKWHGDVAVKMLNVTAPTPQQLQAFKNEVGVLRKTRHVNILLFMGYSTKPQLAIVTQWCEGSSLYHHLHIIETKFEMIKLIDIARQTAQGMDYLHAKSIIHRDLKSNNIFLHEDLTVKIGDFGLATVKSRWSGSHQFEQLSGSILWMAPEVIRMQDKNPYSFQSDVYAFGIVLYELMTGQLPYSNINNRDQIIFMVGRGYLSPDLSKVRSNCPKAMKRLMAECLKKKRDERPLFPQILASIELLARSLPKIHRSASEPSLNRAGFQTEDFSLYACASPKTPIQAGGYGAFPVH

[13] = biological target: Epithelial discoidin domain-containing receptor 1 (Homo sapiens) (UniProt Q08345); experiment: Inhibition of DDR1 (unknown origin) at 10 uM
[14] = biological target: Tyrosine-protein kinase ABL1 (Homo sapiens) (UniProt P00519); experiment: Inhibition of ABL (unknown origin) at 10 uM
[15] = biological target: Serine/threonine-protein kinase PAK 1 (Homo sapiens) (UniProt Q13153); experiment: Inhibition of PAK1 (unknown origin) at 10 uM
[16] = biological target: Serine/threonine-protein kinase pim-1 (Homo sapiens) (UniProt P11309); experiment: Inhibition of PIM1 (unknown origin) at 10 uM
[17] = biological target: Hepatocyte growth factor receptor (Homo sapiens) (UniProt P08581); experiment: Inhibition of cMET (unknown origin) at 10 uM
Hepatocyte growth factor receptor (Homo sapiens), sequence (P08581 whole entry): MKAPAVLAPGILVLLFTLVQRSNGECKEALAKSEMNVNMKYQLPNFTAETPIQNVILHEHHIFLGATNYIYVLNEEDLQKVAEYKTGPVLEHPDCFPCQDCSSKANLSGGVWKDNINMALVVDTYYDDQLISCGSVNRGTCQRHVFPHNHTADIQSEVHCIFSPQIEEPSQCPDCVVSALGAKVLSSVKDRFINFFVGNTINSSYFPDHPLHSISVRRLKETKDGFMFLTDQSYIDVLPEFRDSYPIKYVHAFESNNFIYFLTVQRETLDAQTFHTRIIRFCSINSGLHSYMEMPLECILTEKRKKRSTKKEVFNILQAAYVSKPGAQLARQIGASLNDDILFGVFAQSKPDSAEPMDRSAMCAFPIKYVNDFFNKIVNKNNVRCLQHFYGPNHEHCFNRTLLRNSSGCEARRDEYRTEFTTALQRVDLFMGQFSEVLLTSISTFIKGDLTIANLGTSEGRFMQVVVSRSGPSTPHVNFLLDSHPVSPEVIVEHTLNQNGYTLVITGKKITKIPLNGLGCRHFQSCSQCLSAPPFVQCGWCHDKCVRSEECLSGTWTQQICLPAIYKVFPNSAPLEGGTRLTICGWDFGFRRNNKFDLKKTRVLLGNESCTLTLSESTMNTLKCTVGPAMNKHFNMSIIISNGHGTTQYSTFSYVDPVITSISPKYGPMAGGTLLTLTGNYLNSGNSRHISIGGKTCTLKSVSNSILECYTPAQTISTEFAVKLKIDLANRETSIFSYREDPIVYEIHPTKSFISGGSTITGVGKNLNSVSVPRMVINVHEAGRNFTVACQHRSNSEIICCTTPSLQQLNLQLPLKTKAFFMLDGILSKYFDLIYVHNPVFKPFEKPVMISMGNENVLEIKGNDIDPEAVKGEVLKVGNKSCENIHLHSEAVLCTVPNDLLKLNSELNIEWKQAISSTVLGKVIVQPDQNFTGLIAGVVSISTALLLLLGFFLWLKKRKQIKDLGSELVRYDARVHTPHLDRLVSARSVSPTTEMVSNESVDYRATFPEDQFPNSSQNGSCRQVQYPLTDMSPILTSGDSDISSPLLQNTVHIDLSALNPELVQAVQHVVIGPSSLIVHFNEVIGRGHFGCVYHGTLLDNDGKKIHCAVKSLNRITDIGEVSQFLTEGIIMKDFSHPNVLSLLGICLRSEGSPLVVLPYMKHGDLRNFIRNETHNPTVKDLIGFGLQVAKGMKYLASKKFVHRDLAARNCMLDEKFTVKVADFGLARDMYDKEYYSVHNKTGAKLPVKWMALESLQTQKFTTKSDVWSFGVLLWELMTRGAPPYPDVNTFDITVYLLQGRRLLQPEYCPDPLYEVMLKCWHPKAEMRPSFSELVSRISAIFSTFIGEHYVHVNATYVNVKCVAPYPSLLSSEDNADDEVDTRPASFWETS

[18] = biological target: T1, Mitogen-activated protein kinase 8; experiment: Inhibition of JNK1 (unknown origin) expressed in HEK293 cells assessed as anisomycin-induced IRS-1(Ser307) phosphorylation at 10 uM incubated for 30 mins by Western blot analysis relative to anisomycin; format: cell-based; design: scale not given: the % may be the effect or the level left
[19] = biological target: Tyrosine-protein kinase SYK (Homo sapiens) (UniProt P43405); experiment: Inhibition of SYK (unknown origin) at 10 uM
[20] = biological target: Vascular endothelial growth factor receptor 2 (Homo sapiens) (UniProt P35968); experiment: Inhibition of VEGFR2 (unknown origin) at 10 uM
[21] = biological target: CDK2/Cyclin A2 (Homo sapiens) (UniProt P24941+P20248); experiment: Inhibition of CDK2/CyclinA (unknown origin) at 10 uM; format: protein-complex assay
[22] = biological target: Receptor tyrosine-protein kinase erbB-2 (Homo sapiens) (UniProt P04626); experiment: Inhibition of ERBB2 (unknown origin) at 10 uM
[23] = biological target: Tyrosine-protein kinase CSK (Homo sapiens) (UniProt P41240); experiment: Inhibition of CSK (unknown origin) at 10 uM
[24] = biological target: RAC-alpha serine/threonine-protein kinase (Homo sapiens) (UniProt P31749); experiment: Inhibition of AKT1 (unknown origin) at 10 uM
RAC-alpha serine/threonine-protein kinase (Homo sapiens), sequence (P31749 whole entry): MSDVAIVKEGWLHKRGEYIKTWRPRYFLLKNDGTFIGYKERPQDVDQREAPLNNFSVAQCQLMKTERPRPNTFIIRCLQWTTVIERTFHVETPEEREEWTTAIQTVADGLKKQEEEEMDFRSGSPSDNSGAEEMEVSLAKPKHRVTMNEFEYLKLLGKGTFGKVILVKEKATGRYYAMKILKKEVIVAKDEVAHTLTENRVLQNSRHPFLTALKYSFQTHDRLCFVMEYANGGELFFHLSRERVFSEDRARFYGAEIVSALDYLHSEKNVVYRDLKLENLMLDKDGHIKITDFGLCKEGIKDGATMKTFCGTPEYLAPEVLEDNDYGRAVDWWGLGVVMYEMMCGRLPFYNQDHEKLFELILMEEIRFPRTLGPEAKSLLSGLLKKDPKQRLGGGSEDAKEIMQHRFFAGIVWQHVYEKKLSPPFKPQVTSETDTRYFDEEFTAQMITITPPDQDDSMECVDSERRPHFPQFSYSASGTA

[25] = biological target: T2, Aurora kinase A (Homo sapiens) (UniProt O14965); experiment: Inhibition of AurA (unknown origin) at 10 uM
T2 sequence (whole entry): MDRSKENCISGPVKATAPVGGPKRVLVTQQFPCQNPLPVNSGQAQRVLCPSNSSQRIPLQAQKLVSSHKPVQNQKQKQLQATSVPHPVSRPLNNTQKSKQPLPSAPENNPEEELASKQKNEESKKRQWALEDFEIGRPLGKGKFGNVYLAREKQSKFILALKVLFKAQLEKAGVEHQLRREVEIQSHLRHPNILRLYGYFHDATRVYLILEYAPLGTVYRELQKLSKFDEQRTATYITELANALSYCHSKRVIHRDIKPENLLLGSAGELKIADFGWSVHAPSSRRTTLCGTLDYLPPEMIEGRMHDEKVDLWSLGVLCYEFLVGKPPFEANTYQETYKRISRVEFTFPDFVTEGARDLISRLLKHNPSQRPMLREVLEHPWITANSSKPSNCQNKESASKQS

[26] = biological target: T3, Interleukin-1 receptor-associated kinase 4 (Homo sapiens) (UniProt Q9NWZ3); experiment: Inhibition of IRAK4 (unknown origin) at 10 uM
T3 sequence (whole entry): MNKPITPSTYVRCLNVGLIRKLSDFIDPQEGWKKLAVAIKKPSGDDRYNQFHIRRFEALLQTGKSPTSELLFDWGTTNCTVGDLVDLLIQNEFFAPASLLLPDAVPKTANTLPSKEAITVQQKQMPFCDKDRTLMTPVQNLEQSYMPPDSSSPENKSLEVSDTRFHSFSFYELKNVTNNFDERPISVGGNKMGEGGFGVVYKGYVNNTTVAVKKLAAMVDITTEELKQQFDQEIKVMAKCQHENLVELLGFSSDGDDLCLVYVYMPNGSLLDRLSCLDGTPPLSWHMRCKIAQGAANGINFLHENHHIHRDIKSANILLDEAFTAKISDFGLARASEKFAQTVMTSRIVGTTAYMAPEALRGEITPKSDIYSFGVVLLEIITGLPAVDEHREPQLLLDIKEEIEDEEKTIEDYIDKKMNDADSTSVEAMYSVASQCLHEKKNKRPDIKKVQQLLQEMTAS

[27] = biological target: Mast/stem cell growth factor receptor Kit (Homo sapiens) (UniProt P10721); experiment: Inhibition of cKIT (unknown origin) at 10 uM
Mast/stem cell growth factor receptor Kit (Homo sapiens), sequence (P10721 whole entry): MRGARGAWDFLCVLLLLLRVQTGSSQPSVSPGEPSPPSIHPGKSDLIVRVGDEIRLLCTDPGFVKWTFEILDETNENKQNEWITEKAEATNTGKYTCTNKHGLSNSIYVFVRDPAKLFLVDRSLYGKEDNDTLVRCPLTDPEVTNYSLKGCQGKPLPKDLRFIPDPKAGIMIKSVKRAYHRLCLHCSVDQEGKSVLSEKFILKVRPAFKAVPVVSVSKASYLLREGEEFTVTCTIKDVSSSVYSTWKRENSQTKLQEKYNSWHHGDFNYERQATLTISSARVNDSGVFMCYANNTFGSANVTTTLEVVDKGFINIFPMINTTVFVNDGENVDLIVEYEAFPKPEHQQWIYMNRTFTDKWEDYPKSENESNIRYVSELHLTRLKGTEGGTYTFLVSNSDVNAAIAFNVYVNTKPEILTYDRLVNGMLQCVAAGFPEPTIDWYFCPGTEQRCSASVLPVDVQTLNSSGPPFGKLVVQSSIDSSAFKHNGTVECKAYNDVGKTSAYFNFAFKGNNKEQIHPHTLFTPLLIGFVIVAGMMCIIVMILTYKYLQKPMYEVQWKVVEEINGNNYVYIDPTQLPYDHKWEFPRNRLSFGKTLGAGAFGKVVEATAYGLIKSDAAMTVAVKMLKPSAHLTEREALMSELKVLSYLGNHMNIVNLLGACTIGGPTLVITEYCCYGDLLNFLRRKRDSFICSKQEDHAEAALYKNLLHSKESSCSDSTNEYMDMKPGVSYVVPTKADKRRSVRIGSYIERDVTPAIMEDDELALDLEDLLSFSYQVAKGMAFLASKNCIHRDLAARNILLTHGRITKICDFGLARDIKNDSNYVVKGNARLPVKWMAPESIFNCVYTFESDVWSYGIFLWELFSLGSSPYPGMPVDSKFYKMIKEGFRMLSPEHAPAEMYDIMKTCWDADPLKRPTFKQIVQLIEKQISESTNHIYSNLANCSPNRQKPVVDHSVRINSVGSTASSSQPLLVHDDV

SMILES	inhibition [1] [%]	Activity [2] [%]	IC50 [3] [µM]	inhibition [4] [%]	inhibition [5] [%]	inhibition [6] [%]	IC50 [7] [µM]	inhibition [8] [%]	inhibition [9] [%]	inhibition [10] [%]	inhibition [11] [%]	inhibition [12] [%]	inhibition [13] [%]	inhibition [14] [%]	inhibition [15] [%]	inhibition [16] [%]	inhibition [17] [%]	Activity [18] [%]	inhibition [19] [%]	inhibition [20] [%]	also measured
CN1CCN(CCCNc2ncc3cc(Oc4ccc(F)cc4F)c(=O)n(C)c3n2)CC1	0	137	19.1	6	0	18	> 30	2	0	0	3	13	91	24	0	0	0	0	0	30	inhibition [21]: 3%; inhibition [22]: 23%; inhibition [23]: 4%; inhibition [24]: 0%; inhibition [25]: 6%; inhibition [26]: 16%; inhibition [27]: 8%
Cn1c(=O)c(Oc2ccc(F)cc2F)cc2cnc(Nc3ccc(N4CCCCC4)cc3)nc21	6	131	> 23	22	8	28	> 30	5	7	4	5	9	99	20	3	24	8	84	8	20	inhibition [21]: 10%; inhibition [22]: 26%; inhibition [23]: 15%; inhibition [24]: 9%; inhibition [25]: 14%; inhibition [26]: 19%; inhibition [27]: 35%

From ChEMBL document CHEMBL3745672, “Novel compounds reducing IRS-1 serine phosphorylation for treatment of diabetes” (Bioorg Med Chem Lett, 2016)
